Measured values reported in PubChem BioAssay (NCI).
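Following 48 hours of exposure in 96-well plates, responses at five concentrations were used to interpolate endpoints linearly. GI50 = concentration required for 50% inhibition of growth. At the TGI there is no net growth.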

Columns and labels:
Test in all cases: NCI-60 cell line screen, 48 h
[1] = tested on: MALME-3M melanoma
[2] = tested on: UO-31 renal
[3] = tested on: HT29 colon
[4] = tested on: SNB-75 CNS
[5] = tested on: HOP-62 NSCLC
[6] = tested on: OVCAR-8 ovarian
[7] = tested on: SNB-19 CNS
[8] = tested on: PC-3 prostate
[9] = tested on: 786-0 renal
[10] = tested on: M14 melanoma

SMILES | TGI [1] | TGI [2] | TGI [3] | TGI [4] | TGI [5] | TGI [6] | TGI [7] | TGI [8] | TGI [9] | TGI [10] | GI50 [8] | GI50 [1] | GI50 [3] | GI50 [4] | GI50 [6] | GI50 [10] | GI50 [2] | GI50 [5] | GI50 [7]
CC(C)(C)OC(=O)NC1CCC(C(C)(C)C)CC1 (centres undefined) | > 93.8 µM | > 100 µM | > 87.3 µM | > 100 µM | > 100 µM | > 100 µM | > 100 µM | – | – | – | – | – | – | – | – | – | – | – | –
CC(C)(C)c1ccc(/C=N/NC(=O)CSCC(=O)N/N=C/c2ccc(C(C)(C)C)cc2)cc1 | 24.8 µM | 15.7 µM | 3.87 µM | 20.1 µM | 5.84 µM | 6.49 µM | 17.2 µM | 18.2 µM | 4.4 µM | 3.89 µM | – | – | – | – | – | – | – | – | –
Nc1nc(Nc2ccccc2)sc1C(=O)c1cccs1 | 37.3 µM | 36.2 µM | 18.2 µM | – | > 65.5 µM | 78.4 µM | 46.5 µM | 41.9 µM | 28.6 µM | 36.2 µM | – | – | – | – | – | – | – | – | –
O=C(Nc1ccc(Cl)c(Cl)c1)N1N=C2c3ccccc3CCC2C1c1ccc(Cl)cc1 (centres undefined) | > 100 µM | > 100 µM | > 100 µM | > 100 µM | > 100 µM | > 100 µM | > 100 µM | > 100 µM | > 100 µM | > 100 µM | – | – | – | – | – | – | – | – | –
C=CCSSCC=C | > 100 µM | > 100 µM | > 100 µM | > 100 µM | > 100 µM | > 74.4 µM | > 100 µM | > 100 µM | > 56.5 µM | > 100 µM | – | – | – | – | – | – | – | – | –
O[C@@H]1C[C@H]2N3CC[C@@]2(c2cc4c(cc2C3)OCO4)[C@H]2O[C@@H]12 | > 100 µM | > 100 µM | > 100 µM | > 100 µM | > 100 µM | > 100 µM | > 100 µM | > 100 µM | > 100 µM | > 100 µM | – | – | – | – | – | – | – | – | –
C[C@]12CC[C@H](O)CC1=CC[C@@H]1[C@@H]2CC[C@]2(C)C(=N/O)/C(=C/c3ccc([N+](=O)[O-])cc3)C[C@@H]12 | 22.1 µM | 24.7 µM | 23.5 µM | 18 µM | 21.1 µM | 9.75 µM | 22.4 µM | 14.3 µM | 7.67 µM | 21.1 µM | – | – | – | – | – | – | – | – | –
Cn1c2c3ccc(Cl)cc3nc-2c(Cl)c2ccccc21 | 34 µM | 32.6 µM | 49.9 µM | 55.1 µM | 45.3 µM | > 100 µM | > 100 µM | 38.1 µM | 33.9 µM | 61.3 µM | – | – | – | – | – | – | – | – | –
Cc1cc(C)nc(SCCc2cccc[n+]2C)n1 | > 100 µM | > 100 µM | > 100 µM | > 100 µM | > 100 µM | > 100 µM | > 100 µM | > 100 µM | > 100 µM | > 100 µM | – | – | – | – | – | – | – | – | –
Clc1ccc(-c2ccc(-c3nn4c(CNc5ccccc5)nnc4s3)o2)c(Cl)c1 | > 100 µM | > 100 µM | > 100 µM | > 100 µM | > 100 µM | > 100 µM | > 100 µM | > 100 µM | > 100 µM | > 100 µM | – | – | – | – | – | – | – | – | –
SC1CCCN(Cc2ccccc2)C1 (centres undefined) | – | > 100 µM | 45.8 µM | > 100 µM | > 100 µM | > 100 µM | > 100 µM | > 100 µM | > 100 µM | 36.9 µM | – | – | – | – | – | – | – | – | –
COc1cc(S(=O)(=O)Nc2nc(-c3ccc(N4C(=O)/C(=C/c5ccccc5[N+](=O)[O-])N=C4c4ccccc4)cc3)cs2)ccc1Cl | > 100 µM | > 100 µM | > 100 µM | > 100 µM | > 100 µM | > 100 µM | > 100 µM | > 100 µM | > 100 µM | > 100 µM | – | – | – | – | – | – | – | – | –
O=C(Oc1ccc(Cl)cc1[N+](=O)[O-])c1ccccc1 | > 100 µM | > 100 µM | > 100 µM | > 100 µM | > 100 µM | > 100 µM | > 100 µM | – | – | > 100 µM | – | – | – | – | – | – | – | – | –
CC(=O)OCCOc1cc2c([nH]c3ccccc32)c(C)c2cccc1-2 | 5.64 µM | 3.34 µM | 21.6 µM | 3.51 µM | 18.5 µM | 7.68 µM | 8.97 µM | 3.68 µM | 11 µM | 6.76 µM | – | – | – | – | – | – | – | – | –
O=C1CCCC2C3CC(CN12)C1CCCCN1C3 (centres undefined) | > 100 µM | > 100 µM | > 100 µM | – | > 100 µM | > 100 µM | > 100 µM | > 100 µM | > 100 µM | > 100 µM | – | – | – | – | – | – | – | – | –
COC(=O)Nc1nc2ccc(NC(=O)c3cccs3)cc2[nH]1 | 99.5 µM | 36.2 µM | > 100 µM | 65 µM | > 100 µM | > 100 µM | > 100 µM | > 100 µM | > 100 µM | > 100 µM | – | – | – | – | – | – | – | – | –
O=C1C(Cl)C(c2cc3cc(Br)ccc3nc2Cl)N1c1ccc(Cl)cc1 (centres undefined) | 8.91 µM | 3.28 µM | 19.6 µM | 19.5 µM | > 25 µM | > 25 µM | > 25 µM | > 25 µM | 9.22 µM | 20.9 µM | – | – | – | – | – | – | – | – | –
CCCC(=O)O.CCCC(=O)O.CCCC(=O)O.CCCC(=O)O.[Rh].[Rh] | 0.102 µM | – | 0.126 µM | 2.62 µM | – | 0.428 µM | – | 0.47 µM | – | 0.195 µM | 0.0618 µM | 0.0309 µM | 0.0334 µM | 0.423 µM | 0.0435 µM | 0.0569 µM | – | – | –
c1ccc(C[N+]23CN4CN(CN(C4)C2)C3)cc1 | > 100 µM | 43.7 µM | > 100 µM | > 100 µM | > 100 µM | 81.8 µM | 71.2 µM | 35.7 µM | 46.8 µM | 39.8 µM | – | – | – | – | – | – | – | – | –
O=C(COc1ccc(Cl)c(Cl)c1)N(Cc1ccccc1)Cc1ccc[n+](Cc2ccc(Cl)cc2S(=O)(=O)F)c1 | 54.2 µM | > 100 µM | > 100 µM | > 100 µM | > 100 µM | > 100 µM | > 100 µM | > 100 µM | > 100 µM | > 100 µM | – | – | – | – | – | – | – | – | –
CN1CC(CNC(=O)OCc2ccccc2)CC2c3cccc4c3c(cn4C)CC21 (centres undefined) | 3.14 µM | 4.22 µM | 3.27 µM | 4.68 µM | 2.98 µM | 3.51 µM | 3.99 µM | 6.28 µM | – | 4.68 µM | 2.07 µM | 1.57 µM | 1.4 µM | 1.9 µM | 1.75 µM | 2.14 µM | 1.24 µM | 1.52 µM | 1.8 µM
C=CCNS(=O)(=O)c1ncnc2nc[nH]c12 | > 100 µM | > 100 µM | > 100 µM | > 100 µM | > 100 µM | > 100 µM | > 100 µM | > 100 µM | > 100 µM | > 100 µM | – | – | – | – | – | – | – | – | –
COc1c(OC/C=C(\C)CCC=C(C)C)ccc2ccc(=O)oc12 | – | > 100 µM | > 100 µM | > 100 µM | > 100 µM | > 100 µM | > 100 µM | > 100 µM | > 100 µM | > 100 µM | – | – | – | – | – | – | – | – | –
O=C(c1cc2c(c3ccccc13)NCCN=C2C(F)(F)F)C(F)(F)F | – | > 100 µM | 33.1 µM | > 100 µM | 53 µM | > 100 µM | – | 33.5 µM | 84.8 µM | 79.6 µM | – | – | – | – | – | – | – | – | –
O=C1OC2CC=CC1C2 (centres undefined) | > 100 µM | > 100 µM | > 100 µM | > 100 µM | > 100 µM | > 100 µM | > 100 µM | – | – | – | – | – | – | – | – | – | – | – | –
CC(=O)NNC(=O)C1CCCCN1 (centres undefined) | > 100 µM | – | > 100 µM | – | > 100 µM | > 100 µM | > 100 µM | > 100 µM | > 100 µM | > 100 µM | – | – | – | – | – | – | – | – | –
C=C1C(=O)OC2CC1CCC1(C)OC1CCC(C)=CCCC2(C)O (centres undefined) | 12.2 µM | 18.7 µM | 10.7 µM | 19.5 µM | 19.4 µM | 7.78 µM | 39.9 µM | – | – | – | – | – | – | – | – | – | – | – | –
CC[C@]12C=CCN3CC[C@@]4(c5cc(Br)c(OC)cc5N(C)[C@H]4[C@@](O)(C(=O)N[C@@H](Cc4ccc(O)cc4)C(=O)OC)[C@@H]1O)[C@@H]32 | 29.1 µM | 98.6 µM | 30 µM | – | > 100 µM | > 100 µM | > 100 µM | > 100 µM | > 100 µM | 95.1 µM | – | – | – | – | – | – | – | – | –
O=C(/C=C/c1ccccc1)N1CCCCC1 | – | > 100 µM | > 100 µM | 89.2 µM | > 100 µM | > 100 µM | > 100 µM | > 100 µM | > 100 µM | > 100 µM | – | – | – | – | – | – | – | – | –
